Experimental data published in PubChem BioAssay (NCI).
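Assay format: 96-well plates, 48-hour exposure. The concentration for 50% growth inhibition is given as GI50. TGI denotes the concentration required for complete inhibition of growth.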

Key:
Experiment in all cases: NCI-60 cell line screen, 48 h
[1] = tested on: SK-OV-3 ovarian
[2] = tested on: MALME-3M melanoma
[3] = tested on: LOX IMVI melanoma
[4] = tested on: SF-539 CNS
[5] = tested on: HCC-2998 colon
[6] = tested on: CAKI-1 renal
[7] = tested on: EKVX NSCLC
[8] = tested on: OVCAR-3 ovarian
[9] = tested on: M14 melanoma
[10] = tested on: HCT-116 colon

| SMILES | GI50 [1] | TGI [1] | GI50 [2] | TGI [2] | GI50 [3] | TGI [3] | GI50 [4] | TGI [4] | GI50 [5] | TGI [5] | GI50 [6] | TGI [6] | GI50 [7] | TGI [7] | GI50 [8] | TGI [8] | GI50 [9] | TGI [9] | GI50 [10] | TGI [10] |
| --- | --- | --- | --- | --- | --- | --- | --- | --- | --- | --- | --- | --- | --- | --- | --- | --- | --- | --- | --- | --- |
| COc1ccc(/C=C2\CC(C)CC3C2=NN(c2ccccc2)C3c2ccc(OC)c(OC)c2)cc1OC (configuration not stated) | 9.29 µM | > 100 µM | 8.64 µM | > 100 µM | 2.19 µM | 4.8 µM | 4.46 µM | 24.9 µM | 1.69 µM | 3.13 µM | 6.47 µM | > 100 µM | 5.61 µM | > 100 µM | 3.71 µM | > 100 µM |  |  |  |  |
| CC[C@]12C=CCN3CC[C@@]4(c5ccc(OC)cc5N(C)[C@H]4[C@@](O)(C(=O)OC)[C@@H]1OC(=O)CCC(=O)N[C@H](Cc1c[nH]c4ccccc14)C(=O)OC)[C@@H]32 | 15.5 µM | 33.7 µM | 2.6 µM | 8.09 µM |  |  | 2.63 µM | 7.06 µM | 6.01 µM | 37.9 µM | 3.65 µM | 17 µM | 10.7 µM | 35.7 µM | 3.8 µM | 16.4 µM | 4.06 µM | > 100 µM | 3.02 µM | > 100 µM |
| CC[C@@H](C)Nc1cc(C(=O)NC2CC3CCC(C2)N3c2ccc(C(=O)C3CC3)cn2)c(C)cc1C(N)=O (some centres not stated) | < 0.0114 µM | > 100 µM | 0.0383 µM | > 75.5 µM | 0.0301 µM | 0.102 µM | 0.0679 µM | > 100 µM | 0.0395 µM | 13.5 µM | 0.0597 µM | > 100 µM |  |  | 0.0672 µM | > 88.1 µM | 0.0489 µM | > 84 µM | 0.03 µM | > 100 µM |
| Cc1cn2c(/C=C3/C(=O)Nc4ccc(F)cc43)c(C)nc2s1 | 10.6 µM | > 50 µM | 7.26 µM | > 50 µM | 10.3 µM | > 50 µM | 7.29 µM | 18.4 µM |  |  | 9.21 µM | > 50 µM | 17.3 µM | > 50 µM | 3.5 µM | > 50 µM | 2.68 µM | 17 µM | 2.92 µM | > 50 µM |
| C=C1NC(=O)C(CC(C(=O)C(=O)Nc2c(C)cccc2C(C)(C)C)C(=O)c2ccc3ccccc3c2)C(=O)N1 (configuration not stated) |  | > 100 µM |  |  |  | > 100 µM |  | > 100 µM |  | > 100 µM |  | > 100 µM |  |  |  | > 100 µM |  | > 100 µM |  | > 100 µM |
| Cc1ccc(NC(=O)CC/C(CC(=O)C(C)(C)C)=N\Nc2ccc([N+](=O)[O-])cc2[N+](=O)[O-])cc1C |  | > 100 µM |  |  |  | 97.2 µM |  | > 100 µM |  |  |  |  |  | > 100 µM |  |  |  | 20.4 µM |  | > 100 µM |
| O=C(NNC(=S)Nc1ccccc1)c1ccccn1 | 7.33 µM | > 100 µM |  |  | 2.31 µM | > 100 µM | 2.43 µM | 20.8 µM |  |  | 1.37 µM | > 100 µM |  |  | 6.83 µM | > 100 µM | 2.1 µM | 12.3 µM | 3.02 µM | > 100 µM |
| COc1cc(CC(C(=O)O)C(=O)O)c(OC)cc1CC(C(=O)O)C(=O)O |  | > 100 µM |  | > 100 µM |  | > 100 µM |  | > 100 µM |  |  |  | > 100 µM |  | > 100 µM |  | > 100 µM |  | > 100 µM |  | > 100 µM |
| CC(CCCC1SCC2NC(=O)NC21)C(=O)O (configuration not stated) |  | > 100 µM |  | > 100 µM |  | > 100 µM |  | > 100 µM |  |  |  | > 100 µM |  | > 100 µM |  | > 100 µM |  | > 100 µM |  | > 100 µM |
| N#Cc1c(N)nc(N2CCSCC2)c(C#N)c1-c1ccc(O)cc1 | 24.5 µM | 98.9 µM | 15.2 µM | 94.4 µM | 15.2 µM | 30.3 µM | 18 µM | 39 µM | 17.2 µM | 36.6 µM | 26.7 µM | > 100 µM | 27.5 µM | > 100 µM | 17.5 µM | 44.8 µM |  |  |  |  |
| O=C(Nc1cccnc1)c1ccc2ccc3ccc(C(=O)Nc4cccnc4)nc3c2n1 |  |  | > 100 µM | > 100 µM | 0.18 µM | > 100 µM |  |  | 0.0648 µM | > 100 µM | 0.135 µM | > 100 µM | 0.294 µM | > 100 µM | 0.242 µM | > 100 µM | 0.0799 µM | > 100 µM |  |  |
| C=C1C(=O)OC2CC3(C)CCCC(C)C3=CC12 (configuration not stated) |  | 56.1 µM |  | 16.7 µM |  | 4.42 µM |  | 3.79 µM |  | 16.2 µM |  | 9.27 µM |  | 24.3 µM |  |  |  | 16.1 µM |  | 15.5 µM |
| COc1ccc(CNc2cnc3cc(N)cc(N)c3n2)cc1 | 82.1 µM | > 100 µM |  |  | 17.4 µM | 32 µM | 21.7 µM | 39.4 µM | 14.3 µM | 28 µM | 28.9 µM | 68.6 µM | 14.4 µM | 31.1 µM | 24.5 µM | > 100 µM | 20.5 µM | 43.9 µM | 19.4 µM | 40.8 µM |
| COc1cc(/C=C\c2ccc(OC(C)=O)cc2)cc(OC)c1OC |  | > 100 µM |  | > 100 µM |  |  |  |  |  | > 100 µM |  | > 100 µM |  | > 100 µM |  | > 100 µM |  | > 100 µM |  | > 100 µM |
| Nc1ccc2c(c1)Oc1c(F)c(F)cc3c(=O)c(C(=O)O)cn-2c13 |  | > 100 µM |  | > 100 µM |  |  |  | > 100 µM |  | > 100 µM |  | > 100 µM |  | > 100 µM |  | 96.6 µM |  | > 100 µM |  | > 100 µM |
| CC(=O)O/N=C(Cl)/C(Cl)=N/OC(C)=O |  | > 100 µM |  | > 100 µM |  | > 100 µM |  | > 100 µM |  | > 100 µM |  | > 100 µM |  | > 100 µM |  |  |  | > 100 µM |  | > 100 µM |
| CCOC(=O)NC(=O)c1cn(CCN2CCNCC2)c(=O)[nH]c1=O |  | > 100 µM |  |  |  | > 100 µM |  | > 100 µM |  |  |  | > 100 µM |  | > 100 µM |  | > 100 µM |  | > 100 µM |  | > 100 µM |
